Source: patent US20040002052A1, “Systems and methods for rapid evaluation and design of molecules for predicted biological activity” (priority 2001, published 2004)
Entries after “also recorded” stand apart in the source; their conditions may differ.

How the values were obtained:
estrogenic activity [1] = experiment: uterotrophic assays (estrogenic bioactivity); format: in vivo; conditions: compared with estradiol
estrogenic activity [2] = conditions: Medicinal Chemistry Research 10:440-455, 2001; cited from earlier work

CO[C@H]1C[C@]2(C)[C@@H](O)CC[C@H]2[C@H]2[C@H]1c1ccc(O)cc1C[C@H]2C [PDC-7, 11β-Methoxy-7α-Methylestradiol]
biological potency in uterotrophic assays / estrogenic activity (estrogenic activity [1]): improved biological potency over estradiol; also recorded: potent estrogenic activity
estrogenic bioactivity compared with estradiol (estrogenic activity [2]): greater estrogenic bioactivity than estradiol
